Legend:
c-Abl kinase = biological target: T1, c-Abl kinase (Homo sapiens, UniProt P00519); assay: c-Abl protein-tyrosine kinase filter binding assay; format: biochemical
T1 construct: The His-tagged kinase domain of c-Abl is cloned and expressed in the baculovirus/Sf9 system; His; made in house; host or cells: Sf9 insect cells (baculovirus)
T1 sequence (P00519 242-493 limits assumed): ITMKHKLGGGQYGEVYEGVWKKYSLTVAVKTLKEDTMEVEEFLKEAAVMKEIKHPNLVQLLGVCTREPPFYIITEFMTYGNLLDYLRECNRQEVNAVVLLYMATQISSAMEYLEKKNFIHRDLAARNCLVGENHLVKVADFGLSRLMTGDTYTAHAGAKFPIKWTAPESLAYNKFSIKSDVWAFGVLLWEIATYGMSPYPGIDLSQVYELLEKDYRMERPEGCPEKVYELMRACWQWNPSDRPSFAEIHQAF
Experimental: The His-tagged kinase domain of c-Abl is cloned and expressed in the baculovirus/Sf9 system as described by Bhat et al. in J. Biol. Chem. 1997; 272:16170-16175. A protein of 37 kD (c-Abl kinase) is purified by a two-step procedure over a Cobalt metal chelate column followed by an anion exchange column with a yield of 1-2 mg/L of Sf9 cells (Bhat et al., reference cited). The purity of the c-Abl kinase is >90% as judged by SDS-PAGE after Coomassie blue stai-ning. The assay contains (total volume of 30 μL): c-Abl kinase (50 ng), 20 mM Tris.HCl, pH 7.5, 10 mM MgCl2, 10 μM Na3VO4, 1 mM DTT and 0.06 μCi/assay [γ33 P]-ATP (5 μM ATP) using 30 μg/mL poly-Ala, Glu, Lys, Tyr-6:2:5:1 (Poly-AEKY, Sigma P1152) in the presence of 1% DMSO. Reactions are terminated by adding 10 μL of 250 mM EDTA and 30 μL of the reaction mixture is transferred onto Immobilon-PVDF membrane (Millipore, Bedford, Mass., USA) previously soaked for 5 min with methanol, rinsed with water, then soaked for 5 min with 0.5% H3PO4 and mounted on vacuum manifold with disconnected vacuum source. After spotting all samples, vacuum is connected and each well rinsed with 200 μL 0.5% H3PO4. […] Membranes are counted after drying at ambient temperature, mounting in Packard TopCount 96-well frame, and addition of 10 μL/well of Microscint™ (Packard).

human EphB4 receptor = biological target: T2, human EphB4 receptor (Homo sapiens, UniProt P54760); assay: EphB4 kinase assay on recombinant Ephrin B4 receptor domains (33P filter assay); format: biochemical
T2 construct: made in house; host or cells: Sf9 or Sf21 insect cells (baculovirus)
T2 sequence (P54760 566-987): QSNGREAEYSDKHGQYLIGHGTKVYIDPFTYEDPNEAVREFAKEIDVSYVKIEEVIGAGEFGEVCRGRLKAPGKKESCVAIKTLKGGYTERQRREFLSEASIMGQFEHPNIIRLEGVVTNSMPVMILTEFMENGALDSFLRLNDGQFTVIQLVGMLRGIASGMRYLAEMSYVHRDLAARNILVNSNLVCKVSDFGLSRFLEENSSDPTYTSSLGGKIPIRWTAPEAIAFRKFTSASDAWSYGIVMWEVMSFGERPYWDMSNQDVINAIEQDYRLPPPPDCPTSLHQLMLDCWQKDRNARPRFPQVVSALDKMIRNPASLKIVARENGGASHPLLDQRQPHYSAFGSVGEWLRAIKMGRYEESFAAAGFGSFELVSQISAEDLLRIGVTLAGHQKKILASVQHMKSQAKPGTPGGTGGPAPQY
Description: Recombinant baculovirus are generated that express the amino acid region 566-987 of the human EphB4 receptor (SwissProt Database, Accession No. P54760). GST sequence is cloned into pFastBac1® vector (Invitrogen Life Technologies, Basel, Switzerland) and PCR amplified. cDNAs encoding EphB4-receptor domains, respectively are cloned in frame 3′prime to the GST sequence into this modified FastBac1 vector to generate pBac-to-Bac™ donor vectors. Single colonies arising from the transformation are inoculated to give overnight cultures for small scale plasmid preparation. […] By automated sequencing the inserts and approximately 50 bp of the flanking vector sequences are confirmed on both strands.
Production of viruses: Viruses for each of the kinases are made according to the protocol supplied by GIBCO if not stated otherwise. In brief, transfer vectors containing the kinase domains are transfected into the DH10Bac cell line (GIBCO) and plated on selective agar plates. […]
Purification of GST-tagged kinases: The centrifuged cell lysate is loaded onto a 2 mL glutathione-sepharose column (Pharmacia) and washed three times with 10 mL of 25 mM Tris-HCl, pH 7.5, 2 mM EDTA, 1 mM DTT, 200 mM NaCl. […] Membranes are counted after drying at ambient temperature, mounting in Packard TopCount96-well frame, and addition of 10 μL/well of Microscint™ (Packard). […]

human EphB4 = biological target: T3, human EphB4 (Homo sapiens, UniProt P54760); assay: EphB4 receptor autophosphorylation sandwich ELISA in transfected A375 human melanoma cells; format: cell-based; conditions: EphB4 receptor auto-phosphorylation in vitro on cells
T3 construct: expressed in transfected cells; host or cells: A375 human melanoma cells (ATCC CRL-1619)
T3 sequence (P54760 16-987): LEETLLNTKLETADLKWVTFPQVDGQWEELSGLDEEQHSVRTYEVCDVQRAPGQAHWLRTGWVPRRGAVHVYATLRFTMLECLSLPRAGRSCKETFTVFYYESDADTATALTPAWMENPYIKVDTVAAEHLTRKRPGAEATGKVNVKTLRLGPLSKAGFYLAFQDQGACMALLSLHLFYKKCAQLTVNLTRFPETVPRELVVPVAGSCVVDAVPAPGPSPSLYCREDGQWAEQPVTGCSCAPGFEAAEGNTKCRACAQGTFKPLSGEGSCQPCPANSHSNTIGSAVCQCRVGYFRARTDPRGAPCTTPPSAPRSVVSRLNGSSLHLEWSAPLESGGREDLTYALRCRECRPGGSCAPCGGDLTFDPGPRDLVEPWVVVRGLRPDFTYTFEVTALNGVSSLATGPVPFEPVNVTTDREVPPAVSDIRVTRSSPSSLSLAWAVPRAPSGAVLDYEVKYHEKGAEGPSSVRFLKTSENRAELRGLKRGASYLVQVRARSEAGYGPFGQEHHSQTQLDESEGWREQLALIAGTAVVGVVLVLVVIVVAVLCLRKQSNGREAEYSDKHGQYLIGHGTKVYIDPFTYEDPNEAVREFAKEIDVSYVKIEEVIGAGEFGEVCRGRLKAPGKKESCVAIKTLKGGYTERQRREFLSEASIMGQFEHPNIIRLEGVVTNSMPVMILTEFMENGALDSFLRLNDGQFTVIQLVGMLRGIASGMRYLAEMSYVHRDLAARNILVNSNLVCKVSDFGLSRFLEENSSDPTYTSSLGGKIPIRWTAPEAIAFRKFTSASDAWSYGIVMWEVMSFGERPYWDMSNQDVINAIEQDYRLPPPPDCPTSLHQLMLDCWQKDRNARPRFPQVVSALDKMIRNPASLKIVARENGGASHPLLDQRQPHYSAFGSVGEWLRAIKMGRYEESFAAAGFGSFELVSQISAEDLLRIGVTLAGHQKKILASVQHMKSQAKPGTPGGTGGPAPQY
Experimental: Alternatively, EphB4 receptor autophosphorylation can be measured as follows: The inhibition of EphB4 receptor autophosphorylation can be confirmed with an in vitro experiment in cells such as transfected A375 human melanoma cells (ATCC Number: CRL-1619), which permanently express human EphB4 (SwissProt AccNo P54760), are seeded in complete culture medium (with 10% fetal calf serum ═FCS) in 6-well cell-culture plates and incubated at 37° C. under 5% CO2 until they show about 90% confluency. The compounds to be tested are then diluted in culture medium (without FCS, with 0.1% bovine serum albumin) and added to the cells. (Controls comprise medium without test compounds). Ligand induced autophosphorylation is induced by the addition of 1 microg/ml soluble ephrinB2-Fc (s-ephrinB2-Fc: R&D Biosystems, CatNr 496-EB) and 0.1 microM ortho-vanadate. After a further 20 minutes incubation at 37° C., the cells are washed twice with ice-cold PBS (phosphate-buffered saline) and immediately lysed in 200 μl lysis buffer per well. The lysates are then centrifuged to remove the cell nuclei, and the protein concentrations of the supernatants are determined using a commercial protein assay (PIERCE). The lysates can then either be immediately used or, if necessary, stored at −20° C. […]

COc1ccc(-c2cnn3c(N)c(-c4cccc(Cl)c4)c(CN4CCNCC4)nc23)cc1OC [Example 1, 6-(3-Chloro-phenyl)-3-(3,4-dimethoxy-phenyl)-5-piperazin-1-ylmethyl-pyrazolo[1,5-a]pyrimidin-7-ylamine]
1 to 1000 nM: c-Abl IC50 (c-Abl kinase) | EphB4 IC50 (human EphB4 receptor) | EphB4 ELISA - IC50 (human EphB4)

COc1ccc(-c2cnn3c(N)c(-c4ccc(F)cc4)c(CN4CCNCC4)nc23)cc1OC [Example 2, 3-(3,4-Dimethoxy-phenyl)-6-(4-fluoro-phenyl)-5-piperazin-1-ylmethyl-pyrazolo[1,5-a]pyrimidin-7-ylamine]
1 to 1000 nM: c-Abl IC50 (c-Abl kinase) | EphB4 IC50 (human EphB4 receptor) | EphB4 ELISA - IC50 (human EphB4)
